In patent US20210300940A1 (Merck Patent GmbH, priority 2018, published 2021) one finds IC50 data, which are given here for 20 compounds.

One assay addresses T1, TLR7 (Homo sapiens, UniProt Q9NYK1).
T1 construct: expressed in transfected cells; host or cells: HEK/293 cells carrying TLR7 and an NF-kB luciferase reporter
T1 sequence (Q9NYK1 27-1049): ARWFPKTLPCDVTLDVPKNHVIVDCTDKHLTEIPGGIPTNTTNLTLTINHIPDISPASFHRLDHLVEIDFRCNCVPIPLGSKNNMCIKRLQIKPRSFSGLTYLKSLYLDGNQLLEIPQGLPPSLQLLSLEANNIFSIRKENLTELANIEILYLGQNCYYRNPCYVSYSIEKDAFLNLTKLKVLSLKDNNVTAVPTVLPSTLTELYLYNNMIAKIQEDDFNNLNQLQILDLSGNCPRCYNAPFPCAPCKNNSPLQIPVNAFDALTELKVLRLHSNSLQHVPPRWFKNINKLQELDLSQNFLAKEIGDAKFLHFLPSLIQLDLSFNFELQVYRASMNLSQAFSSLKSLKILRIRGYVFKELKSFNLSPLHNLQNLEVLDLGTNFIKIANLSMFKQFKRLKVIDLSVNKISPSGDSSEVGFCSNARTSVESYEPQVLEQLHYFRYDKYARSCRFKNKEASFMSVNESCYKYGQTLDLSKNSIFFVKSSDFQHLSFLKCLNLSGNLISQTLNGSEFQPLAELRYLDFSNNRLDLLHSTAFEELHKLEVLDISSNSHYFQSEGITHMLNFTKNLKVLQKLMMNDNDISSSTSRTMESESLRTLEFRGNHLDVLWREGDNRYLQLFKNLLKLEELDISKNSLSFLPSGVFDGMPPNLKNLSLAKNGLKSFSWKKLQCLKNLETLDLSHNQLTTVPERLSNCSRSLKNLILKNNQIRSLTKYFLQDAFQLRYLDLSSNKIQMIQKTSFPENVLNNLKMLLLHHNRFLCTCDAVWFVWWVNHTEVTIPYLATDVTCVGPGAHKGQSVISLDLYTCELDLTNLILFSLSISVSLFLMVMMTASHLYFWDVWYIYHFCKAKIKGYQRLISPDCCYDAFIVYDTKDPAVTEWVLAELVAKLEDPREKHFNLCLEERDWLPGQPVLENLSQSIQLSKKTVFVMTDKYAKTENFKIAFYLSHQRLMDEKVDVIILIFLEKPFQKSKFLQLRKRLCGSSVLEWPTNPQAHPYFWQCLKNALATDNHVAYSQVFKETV
Put plainly: HEK/293 TLR7 Cell Assay. Particulars: TLR7/NFKb HEK cells, R848 agonist 10 uM final concentration, Steady-Glo readout; read-out: TLR7 potency. The assay is classed as cell-based. In outline: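 Compounds added to HEK cells expressing TLR7 with an NFκB reporter 30 min ahead of 10 uM R848 challenge; luciferase signal (Steady-Glo) measured after 5 h, cells having been seeded 24 h earlier at 5000 per well.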

The target in the next assay is T2, TLR8 (Homo sapiens, UniProt Q9NR97).
T2 construct: expressed in transfected cells; host or cells: HEK/293 reporter cells (NF-kB luciferase)
T2 sequence (Q9NR97 27-1041): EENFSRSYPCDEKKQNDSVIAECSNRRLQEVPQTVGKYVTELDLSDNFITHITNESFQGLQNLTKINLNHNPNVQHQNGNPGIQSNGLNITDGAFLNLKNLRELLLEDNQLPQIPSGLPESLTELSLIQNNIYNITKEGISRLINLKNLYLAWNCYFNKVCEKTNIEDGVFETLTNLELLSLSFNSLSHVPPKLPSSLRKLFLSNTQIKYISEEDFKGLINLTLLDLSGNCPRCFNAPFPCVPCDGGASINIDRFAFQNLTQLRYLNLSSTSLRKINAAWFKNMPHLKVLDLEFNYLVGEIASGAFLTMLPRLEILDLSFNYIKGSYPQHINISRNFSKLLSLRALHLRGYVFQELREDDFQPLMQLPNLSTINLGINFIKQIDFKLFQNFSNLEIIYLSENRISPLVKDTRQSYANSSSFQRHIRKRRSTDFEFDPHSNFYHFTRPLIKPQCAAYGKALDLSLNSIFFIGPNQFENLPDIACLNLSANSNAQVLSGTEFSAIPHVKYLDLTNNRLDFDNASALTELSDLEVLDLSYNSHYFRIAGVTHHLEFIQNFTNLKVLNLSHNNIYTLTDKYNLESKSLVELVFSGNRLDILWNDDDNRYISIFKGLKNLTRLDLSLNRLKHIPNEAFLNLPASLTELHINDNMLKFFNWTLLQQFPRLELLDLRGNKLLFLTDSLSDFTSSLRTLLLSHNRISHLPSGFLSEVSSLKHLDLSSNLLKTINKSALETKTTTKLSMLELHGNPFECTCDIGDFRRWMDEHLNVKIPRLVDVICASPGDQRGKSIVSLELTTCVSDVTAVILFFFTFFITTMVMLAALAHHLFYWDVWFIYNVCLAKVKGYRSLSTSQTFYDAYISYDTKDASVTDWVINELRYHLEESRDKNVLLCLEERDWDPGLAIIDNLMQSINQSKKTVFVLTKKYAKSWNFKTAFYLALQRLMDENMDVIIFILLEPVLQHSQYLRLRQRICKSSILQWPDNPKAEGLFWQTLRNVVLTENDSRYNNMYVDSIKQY
The experiment in a line: HEK/293 TLR8 Cell Assay. Particulars: HEK cells, R848 agonist 30 uM final concentration, Steady-Glo readout; read-out: TLR8 potency. The assay is classed as cell-based.

With `C[C@@H]1CN(c2ccc(C#N)c3nccnc23)C[C@H](C(=O)NCCN2CCS(=O)(=O)CC2)O1` [Example 239, (2R,6R)-4-(8-Cyano-quinoxalin-5-yl)-6-methyl-morpholine-2-carboxylic acid [2-(1,1-dioxo-1lambda6-thiomorpholin-4-yl)-ethyl]-amide], the IC50 on TLR7 was under 75 nM; on TLR8, over 150 nM.
In the case of `C[C@H]1C[C@@H](NC(=O)CCN2CCOCC2)CN(c2ccc(C#N)c3nccnc23)C1` [Example 194, N-[(3R,5S)-1-(8-Cyano-quinoxalin-5-yl)-5-methyl-piperidin-3-yl]-3-morpholin-4-yl-propionamide], the IC50 on TLR7 is 75 to 150 nM; at TLR8, under 75 nM.
On the same counts, the results for `CCOc1ncc(N2C[C@H](N)C[C@H](C(F)(F)F)C2)c2cccnc12` [Example 10, (3R,5S)-1-(8-Ethoxy-[1,7]naphthyridin-5-yl)-5-trifluoromethyl-piperidin-3-ylamine] are over 150 nM and over 150 nM.
Taken in the same sequence, the figures for `N[C@H](CO)C(=O)N[C@@H]1C[C@H](C(F)(F)F)CN(c2ccc(C(F)(F)F)c3ncccc23)C1` [Example 172, (R)-2-Amino-3-hydroxy-N-[(3R,5S)-5-trifluoromethyl-1-(8-trifluoromethyl-quinolin-5-yl)-piperidin-3-yl]-propionamide] were 75 to 150 nM and over 150 nM.
On the same counts, the results for `C[C@H]1C[C@@H](NC(=O)[C@@H](O)C(C)(C)O)CN(c2ccc(C#N)c3nccnc23)C1` [Example 161, (S)—N-[(3R,5S)-1-(8-Cyano-quinoxalin-5-yl)-5-methyl-piperidin-3-yl]-2,3-dihydroxy-3-methyl-butyramide] are under 75 nM and under 75 nM.
On to `CC(C(=O)N[C@@H]1C[C@H](C(F)(F)F)CN(c2ccc(C#N)c3ncccc23)C1)N1CCN(C)CC1` (single isomer, unassigned) [Example 100], for which the figures for the IC50 at TLR7 and at TLR8 were 75 to 150 nM and under 75 nM, respectively.
Taken in the same sequence, the figures for `N#Cc1ccc(N2C[C@H](CN3CCC4(CC3)CC(=O)N4)O[C@H](C(F)(F)F)C2)c2nccnc12` (single isomer, unassigned) [Example 363] were under 75 nM and over 150 nM.
Consider `Cc1ccc(N2C[C@H](CNC(=O)CC3CCN(C)CC3)O[C@H](C)C2)c2cccnc12` [Example 342, N-{[(2S,6R)-6-methyl-4-(8-methylquinolin-5-yl)morpholin-2-yl]methyl}-2-(1-methylpiperidin-4-yl)acetamide], for which the IC50 on TLR7 and at TLR8 was under 75 nM each time.
Consider `CC(=O)NCCSC[C@H]1CN(c2cnc(C#N)c3ncccc23)C[C@@H](C)O1` [Example 374, N-{2-[(2R,6R)-4-(8-Cyano-[1,7]naphthyridin-5-yl)-6-methyl-morpholin-2-ylmethylsulfanyl]-ethyl}-acetamide], for which the IC50 at TLR7 is over 150 nM; at TLR8 it was 75 to 150 nM.
Taken in the same sequence, the figures for `C[C@H]1C[C@@H](NCCC(=O)NO)CN(c2ccc(C(F)(F)F)c3ncccc23)C1` [Example 36, N-Hydroxy-3-[(3R,5S)-5-methyl-1-(8-trifluoromethyl-quinolin-5-yl)-piperidin-3-ylamino]-propionamide] were under 75 nM and under 75 nM.
On the same counts, the results for `N#Cc1ccc(N2C[C@H](NC(=O)C3CCCCN3)C[C@H](C(F)(F)F)C2)c2cccnc12` (stereo partly drawn) [Example 183, Piperidine-2-carboxylic acid [(3R,5S)-1-(8-cyano-quinolin-5-yl)-5-trifluoromethyl-piperidin-3-yl]-amide] are 75 to 150 nM and 75 to 150 nM.
Taken in the same sequence, the figures for `Cc1ncc(N2C[C@H](NC(=O)CC3CCNCC3F)C[C@H](C(F)(F)F)C2)c2cccnc12` (stereo partly drawn) [Example 136, 2-(3-Fluoro-piperidin-4-yl)-N-[(3R,5S)-1-(8-methyl-[1,7]naphthyridin-5-yl)-5-trifluoromethyl-piperidin-3-yl]-acetamide] were 75 to 150 nM and under 75 nM.
Regarding `CN1CCC(O)(CC(=O)N[C@@H]2C[C@H](C(F)(F)F)CN(c3ccc(C#N)c4ncccc34)C2)CC1` [Example 73, N-[(3R,5S)-1-(8-cyanoquinolin-5-yl)-5-(trifluoromethyl)piperidin-3-yl]-2-(4-hydroxy-1-methylpiperidin-4-yl)acetamide], the figures for the IC50 on TLR7 and at TLR8 were 75 to 150 nM and over 150 nM, respectively.
On the same counts, the results for `N#Cc1ccc(N2C[C@H](NC(=O)[C@@]3(F)CCNC3)C[C@H](C(F)(F)F)C2)c2cccnc12` (single isomer, unassigned) [Example 164] are 75 to 150 nM and 75 to 150 nM.
Regarding `N#Cc1ccc(N2C[C@@H](C(F)(F)F)O[C@@H](C(=O)NC[C@H](O)CO)C2)c2nccnc12` (single isomer, unassigned) [Example 280], the IC50 is 75 to 150 nM at TLR7 and over 150 nM on TLR8.
Taken in the same sequence, the figures for `C[C@H]1C[C@@H](NCCCS(N)(=O)=O)CN(c2ccc(C#N)c3nccnc23)C1` [Example 34, 3-[(3R,5S)-1-(8-Cyano-quinoxalin-5-yl)-5-methyl-piperidin-3-ylamino]-propane-1-sulfonic acid amide] were under 75 nM and under 75 nM.
On the same counts, the results for `C[C@H]1C[C@@H](NC(=O)NCCN(C)C)CN(c2ccc(C(F)(F)F)c3nccnc23)C1` [Example 141, 3-[2-(dimethylamino)ethyl]-1-[(3R,5S)-5-methyl-1-[8-(trifluoromethyl)quinoxalin-5-yl]piperidin-3-yl]urea] are under 75 nM and under 75 nM.
Taken in the same sequence, the figures for `CN1CCC(F)(CNC(=O)[C@@H]2CN(c3ccc(C#N)c4ncccc34)C[C@H](C(F)(F)F)O2)CC1` (single isomer, unassigned) [Example 354] were 75 to 150 nM and over 150 nM.
For the compound `C[C@@H]1CN(c2ccc(C#N)c3nccnc23)C[C@H](C(=O)N2C[C@@H](N)C3(CC3)C2)O1` [Example 288, 8-[(2R,6R)-2-((S)-7-Amino-5-aza-spiro[2.4]heptane-5-carbonyl)-6-methyl-morpholin-4-yl]-quinoxaline-5-carbonitrile], the IC50 at TLR7 and on TLR8 was under 75 nM each time.
Consider `N#Cc1ccc(N2C[C@H](NC(=O)C(O)CO)C[C@H](C(F)(F)F)C2)c2cccnc12` (stereo partly drawn) [Example 60, N-[(3R,5S)-1-(8-Cyano-quinolin-5-yl)-5-trifluoromethyl-piperidin-3-yl]-2,3-dihydroxy-propionamide], for which the IC50 on TLR7 and on TLR8 was under 75 nM in each case.
